Data on 4 compounds can be found in paper PMC4914113, “Another look at the mechanism involving trimeric dUTPases in Staphylococcus aureus pathogenicity island induction involves novel players in the party” (Nucleic Acids Research, 2016).

Assay [1] has as its target T1, Dut80α (Dubowvirus dv80alpha, UniProt A4ZF98).
T1 construct: His6-tagged from pET-28a, E. coli BL21(DE3); homotrimer; models cover residues 2-168 (dUMP) and 2-170 (G164S)
The experiment in a line: X-ray crystallography. The assay is classed as binding. As to conditions: 2.33 Å; no nucleotide added to crystallisation; active site.

For assay [2], the target named is T2, Dutϕ11 (Staphylococcus phage phi 11, UniProt Q8SDV3).
T2 construct: His6-tagged from pET-28a, E. coli BL21(DE3); trimeric Dut
The experiment in a line: biolayer interferometry, effect on Stl binding. Particulars: 0.5 mM dUPNPP; SaPIbov1 Stl analyte; pH 7.5, 5 mM MgCl2; competes with Stl.

The target in assay [3] is T1, Dut80α. Briefly: biolayer interferometry, effect on Stl binding. Particulars: 0.5 mM dUPNPP; SaPIbov1 Stl analyte; pH 7.5, 5 mM MgCl2; competes with Stl. For orientation: In BLI a coated tip is dipped into the sample, and binding shifts an interference pattern.
The target of assay [4] is Dut80α^G164S (Staphylococcus aureus phage 80α). Briefly: crystal structure; Dut80α^WT with dUMP (5CCO) and Dut80α^G164S with dUPNPP-Mg (5CCT); space group P2_(1)3, one Dut molecule in the final model; trimers shown in Figure 3.
Assay [5] deals with Dut80α^WT, wild-type dUTPase of phage 80α (Staphylococcus aureus phage 80α). Described as above.

On to `O=c1ccn([C@H]2C[C@H](O)[C@@H](COP(=O)(O)O)O2)c(=O)[nH]1` [dUMP], for which, in assay [1], the X-ray crystallography result is “structure of the Dut80α^WT bound to the dUMP showed that motif V was ordered”.

Consider `O=c1ccn([C@H]2C[C@H](O)[C@@H](COP(=O)(O)NP(=O)(O)OP(=O)(O)O)O2)c(=O)[nH]1` [dUPNPP, 2-Deoxyuridine-5-[(α,β)-imido]triphosphate], for which the results for the “biolayer interferometry, effect on Stl binding” value in assay [2] and in assay [3] were “dUPNPP decreased the affinity of the Stl:Dut80α complex by about one order” and “presence of the dUPNPP severely affects the formation of the Stl:Dut80α complex”, respectively.

A word on the stoichiometry N: it is a count of units in the complex or per binding partner. Turning to Dut80α^G164S (enzyme), the stoichiometry N in assay [4] worked out at 3.

In turn, “Dut80α^WT, wild-type dUTPase of phage 80α (enzyme)” registered a stoichiometry N in assay [5] of 3.
